Patent US20090170901A1, “Benzoyl Urea Derivatives” (priority 2004, published 2009)
Read-outs that look alike come from different tables or passages of the source.

Legend:
NMRI mice = experiment: Mouse formalin test (second phase) for in vivo efficacy; conditions: for ED50 at 20 mg/kg: Mus musculus, po
NR1-3/NR2A NMDA receptor = target: T1, NR1-3/NR2A NMDA receptor (Homo sapiens, UniProt Q05586+Q12879); experiment: Functional NMDA antagonism, fluorimetric intracellular calcium measurement on HEK293 cells expressing NR1-3/NR2A; format: cell-based; conditions: NMDA evoked calcium rise, NR1-3/NR2A transfected HEK293 cells; for inhibition at 15 µM: Table 1, 15 uM compound
T1 construct: expressed in transfected cells
Procedure: (1997); Neurochemistry International, 43, 19-29. (2003)]. […] Compounds were tested for their inhibitory action on NMDA evoked cytosolic calcium elevations in fluorescent calcium measurements. Studies were performed 48-72 h after addition of the inducing agent. Ketamine (500 μM) was also present during the induction in order to prevent cytotoxicity.
(§1) Assessing the Functional NMDA Antagonist Potency of Compounds on HEK293 cells expressing Recombinant NMDA Receptors Based on Measuring the Intracellular Calcium Concentration Using a Fluorimeter Plate Reader
Since NMDA receptors are known to be permeable to calcium ions upon excitation, the extent of NMDA receptor activation, and its inhibition by functional antagonists can be characterised by measuring the rise in the intracellular calcium concentration following agonist (NMDA) application onto the cells. Since there is very high sequence homology between rat and human NMDA receptors (99, 95, 97% for NR1, NR2A, and NR2B subunits, respectively), it is believed that there is little, if any, difference in their pharmacological sensitivity.
The intracellular calcium measurements are carried out on HEK293 cells expressing NR1a and NR2B or NR2A NMDA receptor subunits. Cells are plated onto standard 96-well microplates and the cultures are maintained in an atmosphere of 95% air-5% CO2 at 37° C. until testing.
(§2) The cells are loaded with a fluorescent Ca^2+-sensitive dye, Fluo-4/AM (2-2.5 μM) prior to testing. Loading is stopped by washing twice with the solution used also during the measurement (140 mM NaCl 5 mM KCl, 2 mM CaCl2, 5 mM HEPES [4-(2-hydroxyethyl)-1-piperazineethane-sulfonic acid], 5 mM HEPES—Na, 20 mM glucose, 10 μM glycine, pH=7.4). Then the test compound dissolved in the above solution (90 μl/well) is added. Intracellular calcium measurements are carried out with a plate reader fluorimeter. A rise in Fluo-4-fluorescence that reflects the intracellular calcium concentration is induced by application of 200 μM NMDA. Inhibitory potency of the test compound is assessed by measuring the reduction in the calcium elevation in the presence of different concentrations of the compound.
(§3) Inhibitory potency of a compound at a single concentration point is expressed as percent inhibition of the control NMDA response. For NR1a/NR2B expressing cells concentration-inhibition curves are produced. Sigmoidal concentration-inhibition curves are fitted over the data and IC50 values are defined as the concentration that produces half of the maximal inhibition that could be achieved with the compound. Mean IC50 values are derived from at least three independent experiments. For NR1-3/NR2A expressing cells antagonism of NMDA induced rise in intracellular calcium concentration by compounds of the present invention and reference compounds was tested at 10 and 15 microM concentration, respectively.

NR1a/NR2B NMDA receptor = target: T2, NR1a/NR2B NMDA receptor (Rattus norvegicus, UniProt P35439+Q00960); experiment: Functional NMDA antagonism, fluorimetric intracellular calcium measurement on HEK293 cells expressing NR1a/NR2B; format: cell-based
T2 construct: expressed in transfected cells
Procedure: Compounds were tested for their inhibitory action on NMDA evoked cytosolic calcium elevations in fluorescent calcium measurements. Studies were performed 48-72 h after addition of the inducing agent. Ketamine (500 μM) was also present during the induction in order to prevent cytotoxicity.
as §1
Since NMDA receptors are known to be permeable to calcium ions upon excitation, the extent of NMDA receptor activation, and its inhibition by functional antagonists can be characterised by measuring the rise in the intracellular calcium concentration following agonist (NMDA) application onto the cells.
The intracellular calcium measurements are carried out on HEK293 cells expressing NR1a and NR2B or NR2A NMDA receptor subunits.
as §2, with “Loading” for “The cells are loaded with a fluorescent Ca^2+-sensitive dye, Fluo-4/AM (2-2.5 μM) prior to testing. Loading”
as §3

[1] = given 15 min before formalin, licking/biting time 20 to 25 min after formalin, >20 means inhibition less than 50% at 20 mg/kg p.o.
[2] = ip, mouse formalin test, read-out: ED50
[3] = Table 2, reference compounds, 10 uM compound
[4] = Table 1, inhibition of calcium rise induced by 200 μM NMDA, NR1a/NR2B transfected HEK293 cells, read-out: NR1a/NR2B IC50

T1 sequence (Q12879 23-1464, other chains not shown): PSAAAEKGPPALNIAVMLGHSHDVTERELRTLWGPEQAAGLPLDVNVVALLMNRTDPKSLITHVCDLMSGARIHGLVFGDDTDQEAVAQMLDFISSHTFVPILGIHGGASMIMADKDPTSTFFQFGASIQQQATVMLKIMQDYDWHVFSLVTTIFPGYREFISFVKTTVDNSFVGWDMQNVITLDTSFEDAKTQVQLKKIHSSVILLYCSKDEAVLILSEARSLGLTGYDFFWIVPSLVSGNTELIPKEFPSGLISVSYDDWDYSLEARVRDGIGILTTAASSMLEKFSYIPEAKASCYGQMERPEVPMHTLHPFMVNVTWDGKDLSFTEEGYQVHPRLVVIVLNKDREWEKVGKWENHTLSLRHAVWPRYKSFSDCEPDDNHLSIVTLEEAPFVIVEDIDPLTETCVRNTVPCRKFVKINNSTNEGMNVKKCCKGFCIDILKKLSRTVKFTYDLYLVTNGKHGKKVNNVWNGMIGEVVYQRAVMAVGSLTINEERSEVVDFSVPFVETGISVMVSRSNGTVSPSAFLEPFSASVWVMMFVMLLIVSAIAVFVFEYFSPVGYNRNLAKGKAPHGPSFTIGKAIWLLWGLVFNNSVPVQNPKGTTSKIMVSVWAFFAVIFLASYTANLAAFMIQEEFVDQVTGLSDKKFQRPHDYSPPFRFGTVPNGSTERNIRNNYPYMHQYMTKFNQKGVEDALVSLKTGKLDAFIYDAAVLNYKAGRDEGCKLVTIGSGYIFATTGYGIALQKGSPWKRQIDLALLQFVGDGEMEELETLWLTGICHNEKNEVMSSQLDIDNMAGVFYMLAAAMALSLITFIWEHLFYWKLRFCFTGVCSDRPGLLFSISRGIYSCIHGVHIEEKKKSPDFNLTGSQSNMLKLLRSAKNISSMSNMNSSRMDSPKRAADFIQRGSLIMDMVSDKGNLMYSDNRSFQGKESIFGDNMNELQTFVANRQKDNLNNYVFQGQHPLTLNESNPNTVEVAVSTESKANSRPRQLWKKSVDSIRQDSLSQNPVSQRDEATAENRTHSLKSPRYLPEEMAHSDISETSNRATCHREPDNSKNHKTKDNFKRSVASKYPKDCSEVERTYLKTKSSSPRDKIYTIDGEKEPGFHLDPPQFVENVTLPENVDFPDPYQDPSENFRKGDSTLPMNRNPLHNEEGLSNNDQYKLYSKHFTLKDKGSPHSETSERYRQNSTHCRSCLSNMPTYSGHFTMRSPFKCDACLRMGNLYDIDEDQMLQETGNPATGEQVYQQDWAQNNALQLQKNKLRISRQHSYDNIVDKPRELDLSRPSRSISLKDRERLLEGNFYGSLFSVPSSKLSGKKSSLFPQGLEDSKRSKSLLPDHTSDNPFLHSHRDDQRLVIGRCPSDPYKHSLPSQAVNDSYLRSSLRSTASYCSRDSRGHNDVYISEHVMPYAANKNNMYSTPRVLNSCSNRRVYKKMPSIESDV
T2 sequence (Q00960 27-1482, other chains not shown): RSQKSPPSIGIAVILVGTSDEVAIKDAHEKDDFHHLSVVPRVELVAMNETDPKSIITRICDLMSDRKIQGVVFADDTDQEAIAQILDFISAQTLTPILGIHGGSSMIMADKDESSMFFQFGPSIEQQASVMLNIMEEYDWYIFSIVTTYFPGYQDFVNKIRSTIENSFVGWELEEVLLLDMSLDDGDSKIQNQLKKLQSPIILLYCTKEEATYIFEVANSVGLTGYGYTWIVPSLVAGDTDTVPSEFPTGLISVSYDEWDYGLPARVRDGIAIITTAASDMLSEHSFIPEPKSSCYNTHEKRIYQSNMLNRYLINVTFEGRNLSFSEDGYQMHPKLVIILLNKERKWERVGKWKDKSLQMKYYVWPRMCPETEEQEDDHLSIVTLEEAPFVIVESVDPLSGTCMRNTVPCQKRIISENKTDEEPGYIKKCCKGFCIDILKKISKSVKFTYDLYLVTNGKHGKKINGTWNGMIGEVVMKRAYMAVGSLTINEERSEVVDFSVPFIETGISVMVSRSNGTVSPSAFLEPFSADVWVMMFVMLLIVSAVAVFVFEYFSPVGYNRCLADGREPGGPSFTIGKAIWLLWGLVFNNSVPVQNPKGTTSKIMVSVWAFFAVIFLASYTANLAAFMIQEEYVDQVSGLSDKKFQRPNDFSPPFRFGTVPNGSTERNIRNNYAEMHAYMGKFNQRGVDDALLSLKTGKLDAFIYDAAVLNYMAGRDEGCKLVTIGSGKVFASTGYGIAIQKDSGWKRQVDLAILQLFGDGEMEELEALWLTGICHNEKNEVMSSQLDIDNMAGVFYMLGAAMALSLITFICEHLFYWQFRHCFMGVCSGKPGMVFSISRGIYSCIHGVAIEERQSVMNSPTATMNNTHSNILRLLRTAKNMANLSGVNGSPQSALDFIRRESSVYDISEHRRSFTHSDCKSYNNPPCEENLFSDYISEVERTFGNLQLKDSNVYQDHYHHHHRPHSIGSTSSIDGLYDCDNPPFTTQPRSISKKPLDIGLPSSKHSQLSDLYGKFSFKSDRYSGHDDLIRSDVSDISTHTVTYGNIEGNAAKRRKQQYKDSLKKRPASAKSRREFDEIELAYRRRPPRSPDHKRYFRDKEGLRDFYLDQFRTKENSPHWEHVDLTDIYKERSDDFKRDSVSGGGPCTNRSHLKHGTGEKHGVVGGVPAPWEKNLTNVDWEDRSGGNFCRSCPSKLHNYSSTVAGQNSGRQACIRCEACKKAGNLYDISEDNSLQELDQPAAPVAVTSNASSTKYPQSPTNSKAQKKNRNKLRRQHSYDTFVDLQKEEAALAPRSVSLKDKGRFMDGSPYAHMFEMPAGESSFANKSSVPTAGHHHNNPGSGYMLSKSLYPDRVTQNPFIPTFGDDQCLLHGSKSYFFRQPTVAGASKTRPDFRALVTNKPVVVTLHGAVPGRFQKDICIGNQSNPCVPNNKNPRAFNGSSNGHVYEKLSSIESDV

Structure (SMILES)	ED50 at 20 mg/kg (NMRI mice; [1]) [mg/kg]	inhibition at 15 µM (NR1-3/NR2A NMDA receptor) [%]	IC50 (NR1a/NR2B NMDA receptor; [4]) [nM]	further results
O=c1[nH]c2ccc([S+]([O-])CCN3CCC(Cc4ccc(F)cc4)CC3)cc2o1 (centres unmarked) [CI-1041, 6-{2-[4-(4-fluoro-benzyl)-piperidin-1-yl]-ethanesulfinyl}-3H-benzooxazol-2-one]	2.4			
C[C@@H]([C@@H](O)c1ccc(O)cc1)N1CCC(O)(c2ccccc2)CC1 [CP 101,606, (1S,2S)-1-(4-hydroxyphenyl)-2-(4-hydroxy-4-phenylpiperidine-1-yl)-1-propanol]	> 20			
Cc1ccc(CC2(O)CCN(CCOc3ccc(O)cc3)CC2)cc1 [Co-101244, 1-[2-(4-hydroxyphenoxy)ethyl]-4-hydroxy-4-(4-methylbenzyl)piperidine]	> 20			ED50 (NMRI mice; [2]): 5.9 mg/kg
O=C(CCN1CCC(Cc2ccc(F)cc2)CC1)c1ccc2[nH]c(=O)oc2c1 [EMD 95885, reference compound]				NR1-3/NR2A % inhibition at 10 uM (NR1-3/NR2A NMDA receptor; [3]): 0.1%; IC50 (NR1a/NR2B NMDA receptor; Table 2, reference compounds, inhibition of calcium rise induced by 200 μM NMDA, NR1a/NR2B transfected HEK293 cells, read-out: NR1a/NR2B IC50): 48 nM; ED50 (NMRI mice; p.o., given 15 min before formalin, licking/biting time 20 to 25 min after formalin, >20 means inhibition less than 50% at 20 mg/kg p.o.): 3.7 mg/kg
O=C(NC(=O)N1CCC(Cc2ccccc2)CC1)c1ccc(O)cc1 [Example 1, 4-Benzyl-piperidine-1-carboxylic Acid 4-hydroxy-benzoylamide]		2.6	28	
COc1ccc(CC2CCN(C(=O)NC(=O)c3ccc(O)cc3)CC2)cc1 [Example 2, 4-(4-Methoxy-benzyl)-piperidine-1-carboxylic Acid 4-hydroxy-benzoylamide]		-5.7	7.6	
O=C(NC(=O)N1CCC(Cc2ccccc2)CC1)c1ccc2[nH]c(=O)oc2c1 [Example 7, 4-Benzyl-piperidine-1-carboxylic Acid (2-oxo-2,3-dihydro-benzooxazole-6-carbonyl)-amide]		-6.7	59.6	
COc1cccc(CC2CCN(C(=O)NC(=O)c3ccc(O)cc3)CC2)c1 [Example 26, 4-(3-Methoxy-benzyl)-piperidine-1-carboxylic Acid 4-hydroxy-benzoylamide]		-0.9	58.9	
Cc1ccc(CCC2CCN(C(=O)NC(=O)c3ccc(O)cc3)CC2)cc1 [Example 27, 4-[2-(p-Tolyl)-ethyl]-piperidine-1-carboxylic acid 4-hydroxy-benzoylamide]		11.4	14.3	
O=C(NC(=O)N1CCC(CSc2ccccc2)CC1)c1ccc(O)cc1 [Example 28, 4-(Phenylthio-methyl)-piperidine-1-carboxylic Acid 4-hydroxy-benzoylamide]		-2.9	59.1	
C[C@@H](CN1CCC(Cc2ccccc2)CC1)[C@@H](O)c1ccc(O)cc1 [Ro 25.6981, R—(R*,S*)-1-(4-hydroxyphenyl)-2-methyl-3-[4-(phenylmethyl)piperidin-1-yl]-1-propanol, reference compound]	> 20			inhibition at 10 µM (NR1-3/NR2A NMDA receptor; [3]): 1%; IC50 (NR1a/NR2B NMDA receptor): 57 nM; ED50 (NMRI mice; [2]): 5.1 mg/kg
